Assay results taken from patent US5908924A, “Cloning and expression of the gene encoding thermoanaerobacter ethanolicus 39E secondary-alcohol dehydrogenase and enzyme biochemical characterization” (Michigan State University, priority 1997, dated 1999).
“Also recorded” adds a separate entry of the source. Read-outs that look alike come from different tables or passages of the source.

Assays:
[1] = molecular target: T1, recombinant T. ethanolicus 2° Adh (Thermoanaerobacter pseudethanolicus, UniProt B0KBL1); test: chemical modification (DTNB, DEPC) and reactivation by DTT with metal salts or EDTA; format: biochemical, Thermoanaerobacter ethanolicus 39E; design: homotetramer; activity recovery of DTNB-inactivated enzyme with DTT plus zinc: dose or concentration left out as unconfirmed; conditions: for effect on enzyme reactivation by DTT after DTNB inactivation: metal salts 0.01 mM to 1.0 mM, EDTA 0.5 mM to 3.0 mM
T1 sequence (B0KBL1 2-353): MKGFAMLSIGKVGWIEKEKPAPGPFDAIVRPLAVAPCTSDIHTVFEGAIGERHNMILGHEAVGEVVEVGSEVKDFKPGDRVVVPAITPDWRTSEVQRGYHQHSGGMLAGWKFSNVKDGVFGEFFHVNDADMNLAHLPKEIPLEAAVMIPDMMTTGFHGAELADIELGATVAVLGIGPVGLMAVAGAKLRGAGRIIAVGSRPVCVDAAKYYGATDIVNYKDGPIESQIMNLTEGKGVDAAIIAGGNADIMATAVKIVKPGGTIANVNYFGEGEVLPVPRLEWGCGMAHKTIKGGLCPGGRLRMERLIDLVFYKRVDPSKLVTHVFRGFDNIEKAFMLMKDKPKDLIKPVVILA
Experimental: Cysteine residues were reversibly modified using dithionitrobenzoate (DTNB) at 25° C. and 60° C.. […] Histidine residues were chemically modified with diethylpyrocarbonate (DEPC) by incubation with 20 mM or 40 mM DEPC in 50 mM phosphate buffer (pH 6.0) at 25° C. for 1.0 h and the reaction was quenched by addition of 0.5×volume of 0.5 M imidazole (pH 6.5).

T. brockii 2° Adh = conditions: sulfhydryl modification by p-chloromercuribenzoate; cited from earlier work
[2] = molecular target: T1, recombinant T. ethanolicus 2° Adh; test: standard 2° Adh activity assay (NADP+ reduction coupled to alcohol oxidation at 60° C.), Kmapp and Vmaxapp; conditions: for Vmaxapp / Km: 60° C.; for Km: read-out: Kmapp
Experimental: (§2) The enzyme was incubated at 55° C. for 15 min prior to activity determination unless otherwise indicated. Assays to determine Kmapp and Vmaxapp were conducted at 60° C. with substrate concentrations between 20×Kmapp and 0.2×Kmapp. Kinetic parameters were calculated from nonlinear best fits of the data to the Michaelis-Menten equation using Kinzyme software [26].

[3] = cited from earlier work; for time to complete inactivation: at 70° C.
[4] = substrate: NC(=O)c1ccc[n+]([C@@H]2O[C@H](COP(=O)([O-])OP(=O)(O)OC[C@H]3O[C@@H](n4cnc5c(N)ncnc54)[C@H](OP(=O)(O)O)[C@@H]3O)[C@@H](O)[C@H]2O)c1; test: purified protein, by the assay type; conditions: other: 60° C.
Experimental: as §2

[5] = 2° Adh thermostability: residual activity after timed incubation at the desired temperatures; format: physicochemical
Experimental: (§1) 2° Adh thermostability was measured as the residual activity after timed incubation at the desired temperatures. Thermal inactivation was stopped by incubation for 30 min at 25° C., and samples were prepared for activity assays by preincubation at 55° C. for 15 min. Incubations were performed in […] (cat. #72.733.050, Sarstedt; Newton, N.C.) using […] protein in […]. Activity was determined using the unfractionated samples. The temperature effect on enzyme activity was studied using the substrates propan-2-ol or ethanol at 10×Kmapp concentrations.

[6] = 2° Adh activity: standard assay and temperature effect on enzyme activity (Arrhenius plots); format: biochemical; conditions: for Arrhenius plot discontinuity temperature: enzyme preincubated at 0° C. or 25° C.
Experimental: as §1
To study the effect of enzyme preincubation temperature on enzyme reaction rates, the 2° Adh was incubated at 0° C., 25° C., or 55° C. for 15 min prior to activity determinations in the temperature range 30-90° C. Tris-HCl buffer pH values were adjusted at 25° C. to be pH 8.0 at the temperature they were used (thermal correction factor=-0.031 ΔpH °C.^-1). The statistical significance of the differences between the Arrhenius plot slopes above and below the discontinuity temperatures was determined by covariance analysis.

Molecule: O[C@H](CS)[C@H](O)CS (racemic) [DTT, dithiothreitol]
- recovery of initial activity of DTNB-inactivated enzyme ([1]; 60° C., DTT, no added metal): 34%

Molecule: [Ca+2].[Cl-].[Cl-] [CaCl2]
- effect on enzyme reactivation by DTT after DTNB inactivation [1]: did not affect enzyme reactivation by DTT

Molecule: O=S(=O)([O-])[O-].[Cd+2] [CdSO4]
- effect on enzyme reactivation by DTT after DTNB inactivation [1]: did not affect enzyme reactivation by DTT

Molecule: [Cl-].[Cl-].[Co+2] [CoCl2]
- recovered activity of DTNB-inactivated enzyme with DTT plus added metal salt, of the initial activity ([1]; 60° C.): 10%

Molecule: CCOC(=O)OC(=O)OCC [DEPC, diethylpyrocarbonate]
- enzyme inactivation by modification of histidine residues ([1]; 20 mM or 40 mM DEPC, pH 6.0, 25° C., 1.0 h): completely inactivated; also recorded: complete enzyme inactivation

Molecule: O=C([O-])CN(CCN(CC(=O)[O-])CC(=O)O)CC(=O)[O-].[Na+].[Na+].[Na+] [EDTA, (ethylenedinitrilo) tetraacetic acid trisodium salt]
- effect on enzyme reactivation by DTT after DTNB inactivation ([1]; trisodium salt): did not affect enzyme reactivation by DTT; also recorded: inability of EDTA to reduce the rate of reactivation

Molecule: [Cl][Fe][Cl] [FeCl2]
- effect on enzyme reactivation by DTT after DTNB inactivation [1]: did not affect enzyme reactivation by DTT

Molecule: [Cl-].[Cl-].[Mg+2] [MgCl2]
- effect on enzyme reactivation by DTT after DTNB inactivation [1]: did not affect enzyme reactivation by DTT

Molecule: [Cl][Mn][Cl] [MnCl2]
- effect on enzyme reactivation by DTT after DTNB inactivation [1]: did not affect enzyme reactivation by DTT

Molecule: [Cl-].[Na+] [NaCl]
- effect on enzyme reactivation by DTT after DTNB inactivation [1]: did not affect enzyme reactivation by DTT

Molecule: [Cl][Ni][Cl] [NiCl2]
- recovered activity of DTNB-inactivated enzyme with DTT plus added metal salt, of the initial activity ([1]; 60° C.): 15%

Molecule: [Cl-].[Cl-].[Zn+2] [ZnCl2]
- inactivation and recovery of activity of T. brockii 2° Adh (T. brockii 2° Adh): recovered activity only in the presence of ZnCl2
- activity recovery of DTNB-inactivated enzyme with DTT plus zinc ([1]; in the presence of ZnCl2): up to 48%

Molecule: CCO [ethanol]
- Vmaxapp [2]: 10 U mg^-1
- Kmapp toward the 1° alcohol relative to the 2° alcohol ([2]; higher than for propan-2-ol): ~43 fold
- Km [2]: 47000 µM

Molecule: O=C(O)c1cc[c]([Hg][Cl])cc1 [p-chloromercuribenzoate]
- inactivation and recovery of activity of T. brockii 2° Adh (T. brockii 2° Adh): inactivated

Molecule: CC(C)O [propan-2-ol]
- Vmaxapp [2]: 47 U mg^-1
- Km [2]: 1100 µM

Molecule: NAD(H)
- NAD(H) dependent activity [2]: no NAD(H) dependent activity was detected

B1: recombinant T. ethanolicus 2° Adh (Thermoanaerobacter pseudethanolicus ATCC 33223) (protein)
chain: MKGFAMLSIGKVGWIEKEKPAPGPFDAIVRPLAVAPCTSDIHTVFEGAIGERHNMILGHEAVGEVVEVGSEVKDFKPGDRVVVPAITPDWRTSEVQRGYHQHSGGMLAGWKFSNVKDGVFGEFFHVNDADMNLAHLPKEIPLEAAVMIPDMMTTGFHGAELADIELGATVAVLGIGPVGLMAVAGAKLRGAGRIIAVGSRPVCVDAAKYYGATDIVNYKDGPIESQIMNLTEGKGVDAAIIAGGNADIMATAVKIVKPGGTIANVNYFGEGEVLPVPRLEWGCGMAHKTIKGGLCPGGRLRMERLIDLVFYKRVDPSKLVTHVFRGFDNIEKAFMLMKDKPKDLIKPVVILA
- activity retained after incubation ([3]; incubation for 30 minutes at 91° C.): 40%
- Km [4]: 11 µM

B2: T. ethanolicus 39E 2° Adh: thermophilic NADP(H)-dependent secondary-alcohol dehydrogenase of Thermoanaerobacter ethanolicus 39E (SEQ ID NO: 2), adhB gene expressed in E. coli, homotetramer (protein)
chain: MKGFAMLSIGKVGWIEKEKPAPGPFDAIVRPLAVAPCTSDIHTVFEGAIGERHNMILGHEAVGEVVEVGSEVKDFKPGDRVVVPAITPDWWTSEVQRGYHQHSGGMLAGWKFSNVKDGVFGEFFHVNDADMNLAHLPKEIPLEAAVMIPDMMTTGFHGAELADIELGATVAVLGIGPVGLMAVAGAKLRGAGRIIAVGSRPVCVDAAKYYGATDIVNYKDGPIESQIMNLTEGKGVDAAIIAGGNADIMATAVKIVKPGGTIANVNYFGEGEVLPVPRLEWGCGMAHKTIKGGLCPGGRLRMERLIDLVFYKPVDPSKLVTHVFQGFDNIEKAFMLMKDKPKDLIKPVVILA
- thermostability and thermophilicity compared with other 2° Adhs [5]: more thermostable and thermophilic
- half-life ([5]; at 90° C., recombinant enzyme): 1.7 h
- time for which detectable activity was retained ([5]; incubated at 90° C.): retained detectable activity for more than one hour
- activity retained after incubation ([5]; incubation for more than one hour at 90° C.): 100%
- difference between activation energies above and below the discontinuity (Δ), ethanol oxidation relative to propan-2-ol oxidation [6]: at least 3 fold
- initial activity ([6]; before DTNB modification): 54±3.0 U mg^-1
- Arrhenius plot form ([6]; ethanol oxidation, enzyme incubated at 55° C. prior to assay (FIG. 2B)): distinct discontinuity
- Arrhenius plot discontinuity temperature ([6]; ethanol oxidation): ~ 46 °C
- temperature range of activity ([6]; propan-2-ol oxidation, recombinant enzyme (FIG. 2A)): detected below 25 °C and increased to beyond 90 °C
- Arrhenius plot form ([6]; propan-2-ol oxidation, enzyme incubated at 55° C. prior to assay): linear from 25 °C to 90 °C
- Arrhenius plot discontinuity temperature ([6]; propan-2-ol oxidation): ~ 55 °C

B3: C. beijerinckii 2° Adh: mesophilic NADP(H)-dependent secondary-alcohol dehydrogenase of Clostridium beijerinckii (protein, UniProt P25984 1-351, looked up)
NADP-dependent isopropanol …: MKGFAMLGINKLGWIEKERPVAGSYDAIVRPLAVSPCTSDIHTVFEGALGDRKNMILGHEAVGEVVEVGSEVKDFKPGDRVIVPCTTPDWRSLEVQAGFQQHSNGMLAGWKFSNFKDGVFGEYFHVNDADMNLAILPKDMPLENAVMITDMMTTGFHGAELADIQMGSSVVVIGIGAVGLMGIAGAKLRGAGRIIGVGSRPICVEAAKFYGATDILNYKNGHIVDQVMKLTNGKGVDRVIMAGGGSETLSQAVSMVKPGGIISNINYHGSGDALLIPRVEWGCGMAHKTIKGGLCPGGRLRAEMLRDMVVYNRVDLSKLVTHVYHGFDHIEEALLLMKDKPKDLIKAVVIL
- time to complete inactivation [3]: ≤ 10 min
- time to complete inactivation ([3]; listed as C. beijerinckii): ≤ 10 min
